Patent publication US20070281960A1, “Anti-Histaminic Composition” (priority 2004, published 2007)

Tests used:
[1] = Compatibility of desloratadine with common excipients; format: physicochemical; conditions: lactose, magnesium stearate, microcrystalline stearate; degrades and changes to a pink colour
Description: Therefore, extreme caution needs to be taken when formulating desloratadine with various excipients. […] This decomposition is further accelerated under high temperature and humid conditions.

human mast cells = conditions: in vitro; cited from earlier work

Clc1ccc2c(c1)CCc1cccnc1C2=C1CCNCC1 [Desloratadine, 8-chloro-6,11-dihydro-11-(4-piperidylidene)-5-H-benzo [5,6] cyclohepta [1,2-b] pyridine]
compatibility with common excipients [1]: incompatible
histamine release from human mast cells (human mast cells): inhibits histamine release
